pIC50: −log10 of the molar value.

One test concerns HIV-1NL4-3. The test can be described thus: P4-MAGI assay. The class given is cell-based. The note with it: Human immunodeficiency virus 1, 24 h, P4 cells, 24 hour incubation, β-galactosidase expression; read-out: P4-MAGI IC50. The text has this: P4 cells were used to test the effects of compounds on virus fusion activity. P4 cells are HIV-1 infectable CD4^+ HeLa cells that bear the bacterial lacZ gene under the control of a minimal HIV-1 LTR. Charneau, et. al., J. Mol. Biol. 241:651-662 (1994). When these cells are infected with HIV-1, β-galactosidase is expressed due to Tat activation of the viral LTR. In this assay, P4 cells were infected with the laboratory adapted strain HIV-1NL4-3 at a multiplicity of infection of 1 in the presence of DEAE-Dextran. Immediately after addition of virus to the cells, increasing concentrations of compound were added to the cells. […] The effect on cell viability (TC50, concentration of compound that inhibits growth by 50%) was determined in mock-infected cells with the WST-1 Cell Proliferation Reagent (Roche Diagnostics).
Take `CC(O)(CO)[C@@H]1CC[C@]2(C(=O)NCc3cccc(C(=O)NCCCCC(=O)O)c3)CC[C@]3(C)C(CCC4[C@@]5(C)CC[C@H](O)C(C)(C)C5CC[C@]43C)C12` (single isomer, unassigned) [Example 139]: the pIC50 is 5.82.
Regarding `C=C(C)[C@@H]1CC[C@]2(C(=O)NCc3cccc(C(=O)NCc4ccccc4C(=O)O)c3)CC[C@]3(C)C(CCC4[C@@]5(C)CC[C@H](O)C(C)(C)C5CC[C@]43C)C12` (stereo partly drawn) [Example 8], the pIC50 was 6.06.
Still for that read-out and setting: then `C=C(C)[C@@H]1CC[C@]2(C(=O)NCc3cccc(C(=O)NCCc4cccc(C(=O)O)c4)c3)CC[C@]3(C)C(CCC4[C@@]5(C)CC[C@H](O)C(C)(C)C5CC[C@]43C)C12` (stereo partly drawn) [Example 11], with 7.26; and `C=C(C)[C@@H]1CC[C@]2(C(=O)NCc3cccc(C(=O)Nc4ccc(O)c(C(=O)O)c4)c3)CC[C@]3(C)C(CCC4[C@@]5(C)CC[C@H](O)C(C)(C)C5CC[C@]43C)C12` (stereo partly drawn) [Example 12], with 5.14.
Same read-out and setting: then `C=C(C)[C@@H]1CC[C@]2(C(=O)NCc3cccc(C(=O)Nc4ccc(C(=O)O)cc4)c3)CC[C@]3(C)C(CCC4[C@@]5(C)CC[C@H](O)C(C)(C)C5CC[C@]43C)C12` (stereo partly drawn) [Example 14], with 5.74; and `C=C(C)[C@@H]1CC[C@]2(C(=O)NCc3cccc(C(=O)Nc4cccc(C(=O)O)c4)c3)CC[C@]3(C)C(CCC4[C@@]5(C)CC[C@H](O)C(C)(C)C5CC[C@]43C)C12` (stereo partly drawn) [Example 15], with 6.49; and `C=C(C)[C@@H]1CC[C@]2(C(=O)NCc3cccc(C(=O)NC4(Cc5ccc(C(=O)O)cc5)CC4)c3)CC[C@]3(C)C(CCC4[C@@]5(C)CC[C@H](O)C(C)(C)C5CC[C@]43C)C12` (stereo partly drawn) [Example 28], with 5.92.
As to `C=C(C)[C@@H]1CC[C@]2(C(=O)NCc3cccc(C(=O)NCc4cccc(Br)c4)c3)CC[C@]3(C)C(CCC4[C@@]5(C)CC[C@H](O)C(C)(C)C5CC[C@]43C)C12` (stereo partly drawn) [Example 30], the negative-log IC50 (pIC50) is 6.39.
Still for that read-out and setting: next, `C=C(C)[C@@H]1CC[C@]2(C(=O)NCc3cccc(C(=O)NCc4cc(C(=O)O)ccn4)c3)CC[C@]3(C)C(CCC4[C@@]5(C)CC[C@H](O)C(C)(C)C5CC[C@]43C)C12` (stereo partly drawn) [Example 31]: 6.24; `C=C(C)[C@@H]1CC[C@]2(C(=O)NCc3cccc(C(=O)NCCc4cc(OC)cc(OC)c4)c3)CC[C@]3(C)C(CCC4[C@@]5(C)CC[C@H](O)C(C)(C)C5CC[C@]43C)C12` (stereo partly drawn) [Example 44]: 7.28; `C=C(C)[C@@H]1CC[C@]2(C(=O)NCc3cccc(C(=O)NCc4ccc(OC)cc4OC)c3)CC[C@]3(C)C(CCC4[C@@]5(C)CC[C@H](O)C(C)(C)C5CC[C@]43C)C12` (stereo partly drawn) [Example 46]: 7.23.
The same measure, in the same setting: next, `C=C(C)[C@@H]1CC[C@]2(C(=O)NCCc3ccccc3C(=O)NCCCCC(=O)O)CC[C@]3(C)C(CCC4[C@@]5(C)CC[C@H](O)C(C)(C)C5CC[C@]43C)C12` (stereo partly drawn) [Example 54]: 5.47.
The same measure, in the same setting: next, `C=C(C)[C@@H]1CC[C@]2(C(=O)NCCc3ccccc3C(=O)NCCCCCCC(=O)O)CC[C@]3(C)C(CCC4[C@@]5(C)CC[C@H](O)C(C)(C)C5CC[C@]43C)C12` (stereo partly drawn) [Example 55]: 5.33.
For `C=C(C)[C@@H]1CC[C@]2(C(=O)NCCc3cccc(C(=O)NCC(=O)O)c3)CC[C@]3(C)C(CCC4[C@@]5(C)CC[C@H](O)C(C)(C)C5CC[C@]43C)C12` (stereo partly drawn) [Example 64], the pIC50 is 6.66.
On the same count and under the same terms, next, `C=C(C)[C@@H]1CC[C@]2(C(=O)NCCc3cccc(C(=O)NCC(=O)NC)c3)CC[C@]3(C)C(CCC4[C@@]5(C)CC[C@H](O)C(C)(C)C5CC[C@]43C)C12` (stereo partly drawn) [Example 71]: 5.57; `C=C(C)[C@@H]1CC[C@]2(C(=O)NCCc3cccc(C(=O)N[C@@H](CCC(=O)OC)C(N)=O)c3)CC[C@]3(C)C(CCC4[C@@]5(C)CC[C@H](O)C(C)(C)C5CC[C@]43C)C12` (stereo partly drawn) [Example 77]: 6.98.
Take `C=C(C)[C@@H]1CC[C@]2(C(=O)NCc3cccc(CNC(=O)c4ccc(C(=O)O)c(C(=O)O)c4)c3)CC[C@]3(C)C(CCC4[C@@]5(C)CC[C@H](O)C(C)(C)C5CC[C@]43C)C12` (stereo partly drawn) [Example 78]: the pIC50 was 5.15.
In the case of `C=C(C)[C@@H]1CC[C@]2(C(=O)NCc3cccc(CNC(=O)c4cc(C(=O)O)ccc4C(=O)O)c3)CC[C@]3(C)C(CCC4[C@@]5(C)CC[C@H](O)C(C)(C)C5CC[C@]43C)C12` (stereo partly drawn) [Example 79], the pIC50 was 6.39.
For the molecule `C=C(C)[C@@H]1CC[C@]2(C(=O)NCc3cccc(C(=O)NCc4cccc(C(=O)O)c4C)c3C)CC[C@]3(C)C(CCC4[C@@]5(C)CC[C@H](O)C(C)(C)C5CC[C@]43C)C12` (stereo partly drawn) [Example 81], the pIC50 is 5.21.
On the same count and under the same terms, next, `C=C(C)[C@@H]1CC[C@]2(C(=O)NCC(C)c3cccc(C(=O)NCc4cccc(C(=O)O)c4)c3)CC[C@]3(C)C(CCC4[C@@]5(C)CC[C@H](O)C(C)(C)C5CC[C@]43C)C12` (stereo partly drawn) [Example 82]: 6.82.
On the same count and under the same terms, then `C=C(C)[C@@H]1CC[C@]2(C(=O)NCC(C)c3cccc(C(=O)NCc4cccc(C(=O)O)c4C)c3)CC[C@]3(C)C(CCC4[C@@]5(C)CC[C@H](O)C(C)(C)C5CC[C@]43C)C12` (stereo partly drawn) [Example 83], with 6.57; and `C=C(C)[C@@H]1CC[C@]2(C(=O)Nc3cccc(C(=O)NCCc4cccc(C(=O)O)c4)c3)CC[C@]3(C)C(CCC4[C@@]5(C)CC[C@H](O)C(C)(C)C5CC[C@]43C)C12` (stereo partly drawn) [Example 85], with 5.00; and `C=C(C)[C@@H]1CC[C@]2(C(=O)NCc3cccc(C(=O)O)n3)CC[C@]3(C)C(CCC4[C@@]5(C)CC[C@H](O)C(C)(C)C5CC[C@]43C)C12` (stereo partly drawn) [Example 86], with 5.44.
The same measure, in the same setting: next, `C=C(C)[C@@H]1CC[C@]2(C(=O)NCc3ccc(C(=O)OC)o3)CC[C@]3(C)C(CCC4[C@@]5(C)CC[C@H](O)C(C)(C)C5CC[C@]43C)C12` (stereo partly drawn) [Example 87]: 5.85; `C=C(C)[C@@H]1CC[C@]2(C(=O)NCc3ccc(C(=O)O)o3)CC[C@]3(C)C(CCC4[C@@]5(C)CC[C@H](O)C(C)(C)C5CC[C@]43C)C12` (stereo partly drawn) [Example 88]: 5.16.
`C=C(C)[C@@H]1CC[C@]2(C(=O)NCc3ccc(C(=O)NCc4ccc(C(=O)OC)o4)o3)CC[C@]3(C)C(CCC4[C@@]5(C)CC[C@H](O)C(C)(C)C5CC[C@]43C)C12` (stereo partly drawn) [Example 89]: the negative-log IC50 (pIC50) was 5.64.
Still for that read-out and setting: next, `C=C(C)[C@@H]1CC[C@]2(C(=O)NCc3ccc(C(=O)NCc4ccc(C(=O)O)o4)o3)CC[C@]3(C)C(CCC4[C@@]5(C)CC[C@H](O)C(C)(C)C5CC[C@]43C)C12` (stereo partly drawn) [Example 90]: 5.19; `C=C(C)[C@@H]1CC[C@]2(C(=O)NCc3cccc(C(=O)NCc4cccc(C(=O)O)n4)n3)CC[C@]3(C)C(CCC4[C@@]5(C)CC[C@H](O)C(C)(C)C5CC[C@]43C)C12` (stereo partly drawn) [Example 91]: 5.41.
The same measure, in the same setting: then `C=C(C)[C@@H]1CC[C@]2(C(=O)NCc3ccc(F)c(C(=O)NCCc4ccc(C(=O)OC)cc4)c3)CC[C@]3(C)C(CCC4[C@@]5(C)CC[C@H](O)C(C)(C)C5CC[C@]43C)C12` (stereo partly drawn) [Example 104], with 6.46.
Same read-out and setting: then `C=C(C)[C@@H]1CC[C@]2(C(=O)NCc3ccc(F)c(C(=O)NCCc4cccc(C(=O)OC)c4)c3)CC[C@]3(C)C(CCC4[C@@]5(C)CC[C@H](O)C(C)(C)C5CC[C@]43C)C12` (stereo partly drawn) [Example 106], with 5.89; and `C=C(C)[C@@H]1CC[C@]2(C(=O)NCc3ccc(F)c(C(=O)NCc4cccc(C(=O)OC)c4)c3)CC[C@]3(C)C(CCC4[C@@]5(C)CC[C@H](O)C(C)(C)C5CC[C@]43C)C12` (stereo partly drawn) [Example 110], with 6.07; and `C=C(C)[C@@H]1CC[C@]2(C(=O)NCCc3ccc(OCCCCC(=O)O)cc3)CC[C@]3(C)C(CCC4[C@@]5(C)CC[C@H](O)C(C)(C)C5CC[C@]43C)C12` (stereo partly drawn) [Example 112], with 6.50.
Consider `C=C(C)[C@@H]1CC[C@]2(C(=O)NCCc3cccc(OCCCCC(=O)O)c3)CC[C@]3(C)C(CCC4[C@@]5(C)CC[C@H](O)C(C)(C)C5CC[C@]43C)C12` (stereo partly drawn) [Example 113], for which the pIC50 is 6.14.
Consider `C=C(C)[C@@H]1CC[C@]2(C(=O)N[C@@H](Cc3ccc(OCCCCC(=O)O)cc3)C(=O)O)CC[C@]3(C)C(CCC4[C@@]5(C)CC[C@H](O)C(C)(C)C5CC[C@]43C)C12` (stereo partly drawn) [Example 115], for which the negative logarithm of the IC50 (pIC50) was 5.00.
Same read-out and setting: then `C=C(C)[C@@H]1CC[C@]2(C(=O)N[C@@H](Cc3ccc(OCCN4CCOC4=O)cc3)C(=O)O)CC[C@]3(C)C(CCC4[C@@]5(C)CC[C@H](O)C(C)(C)C5CC[C@]43C)C12` (stereo partly drawn) [Example 116], with 6.75; and `C=C(C)[C@@H]1CC[C@]2(C(=O)NCc3cccc(N4CCN(Cc5cccc(C(=O)O)c5)CC4)c3)CC[C@]3(C)C(CCC4[C@@]5(C)CC[C@H](O)C(C)(C)C5CC[C@]43C)C12` (stereo partly drawn) [Example 118], with 6.34; and `C=C(C)[C@@H]1CC[C@]2(C(=O)NCc3cccc(C(=O)NCc4ccc(OCCC(=O)O)c(C(=O)O)c4)c3)CC[C@]3(C)C(CCC4[C@@]5(C)CC[C@H](O)C(C)(C)C5CC[C@]43C)C12` (stereo partly drawn) [Example 119], with 5.96.
Still for that read-out and setting: next, `C=C(C)[C@@H]1CC[C@]2(C(=O)NCc3cccc(C(=O)NCc4ccc(OCC(=O)O)c(C(=O)O)c4)c3)CC[C@]3(C)C(CCC4[C@@]5(C)CC[C@H](O)C(C)(C)C5CC[C@]43C)C12` (stereo partly drawn) [Example 120]: 6.21.

Staying with this test, now noted: Human immunodeficiency virus 1, text statement, less than about 100 nm; read-out: P4-MAGI assay IC50.
Regarding `C=C(C)[C@@H]1CC[C@]2(C(=O)NCc3cccc(C(=O)NCCc4cccc(C(=O)O)c4)c3)CC[C@]3(C)C(CCC4[C@@]5(C)CC[C@H](O)C(C)(C)C5CC[C@]43C)C12` (stereo partly drawn) [Example 11], the pIC50 was more than 7.00.
Still for that read-out and setting: then `C=C(C)[C@@H]1CC[C@]2(C(=O)NCc3cccc(C(=O)NCCc4cc(OC)cc(OC)c4)c3)CC[C@]3(C)C(CCC4[C@@]5(C)CC[C@H](O)C(C)(C)C5CC[C@]43C)C12` (stereo partly drawn) [Example 44], with more than 7.00; and `C=C(C)[C@@H]1CC[C@]2(C(=O)NCc3cccc(C(=O)NCc4ccc(OC)cc4OC)c3)CC[C@]3(C)C(CCC4[C@@]5(C)CC[C@H](O)C(C)(C)C5CC[C@]43C)C12` (stereo partly drawn) [Example 46], with more than 7.00.

The test is the same for the next values; noted with them: P4 cells, 24 hour incubation, β-galactosidase expression; read-out: P4-MAGI IC50.
On to `CC(O)(CO)[C@@H]1CC[C@]2(C(=O)NCc3cccc(C(=O)NCCCCC(=O)O)c3)CC[C@]3(C)C(CCC4[C@@]5(C)CC[C@H](O)C(C)(C)C5CC[C@]43C)C12` (single isomer, unassigned) [Example 140], for which the pIC50 is 5.80.
